{"source": "PubChem BioAssay AID1259411", "about": "(Chemical Carcinogenesis Research Information System (CCRIS), 2018)", "system": "rodent carcinogenicity bioassays, tumor incidence", "experiment": "CCRIS carcinogenicity studies", "details": "Dose: 0, Dose: 0", "outline": "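Archive of carcinogenicity, mutagenicity, tumor promotion and tumor inhibition results drawn from journals, NCI reports and other sources, expert-reviewed; covers 1985-2011 and is no longer updated.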", "note": "Activity calls are given as the source filed them. How the calls were made is not given here.", "data": [{"molecule": "O=[N+]([O-])c1c2ccccc2c2ccc3cccc4ccc1c2c43", "values": [{"measurement": "carcinogen call", "setting": "Species: MOUSE, Strain/Sex: ICR/FEMALE, Route: INTRAPERITONEAL, 14 UG TOTAL DOSE (2 UG/5 µL, 4 UG/10 µL, 8 UG/20 µL DMSO ON DAYS 1,8 AND 15), 70 UG TOTAL DOSE (10 UG/5 µL, 20 UG/10, 14 UG TOTAL DOSE (2 UG/5 µL, 4 UG/10 µL, 8 UG/20 µL DMSO ON DAYS 1,8 AND 15), 70 UG TOTAL DOSE (10 UG/5 µL, 20 UG/10", "value": "inactive; negative"}, {"measurement": "carcinogen call", "setting": "Species: MOUSE, Strain/Sex: ICR/MALE, Route: INTRAPERITONEAL, 14 UG TOTAL DOSE (2 UG/5 µL, 4 UG/10 µL, 8 UG/20 µL DMSO ON DAYS 1,8 AND 15), 70 UG TOTAL DOSE (10 UG/5 µL, 20 UG/10, 14 UG TOTAL DOSE (2 UG/5 µL, 4 UG/10 µL, 8 UG/20 µL DMSO ON DAYS 1,8 AND 15), 70 UG TOTAL DOSE (10 UG/5 µL, 20 UG/10", "value": "inactive; negative"}]}, {"molecule": "CCC(C)[N+](=O)[O-]", "note": "(stereo not given)", "values": [{"measurement": "carcinogen call", "setting": "Species: RAT, Strain/Sex: F344/MALE, Route: GAVAGE, 2 MMOL/KG BW 1/WK FOR 50 WK (STUDY DURATION: 83 WK), Tumor Site: Type of Lesion: LIVER: CARCINOMA", "value": "active; positive"}]}, {"molecule": "Nc1ccc([N+](=O)[O-])cc1", "values": [{"measurement": "carcinogen call", "setting": "Species: MOUSE, Strain/Sex: B6C3F1/FEMALE, Route: GAVAGE, 3, 30, 100 MG/KG IN CORN OIL 5 D/WK FOR 103 WK (STUDY DURATION: 104 WK), 3, 30, 100 MG/KG IN CORN OIL 5 D/WK FOR 103 WK (STUDY DURATION: 104 WK)", "value": "inactive; negative"}, {"measurement": "carcinogen call", "setting": "Species: MOUSE, Strain/Sex: B6C3F1/MALE, Route: GAVAGE, 3, 30, 100 MG/KG IN CORN OIL 5 D/WK FOR 103 WK (STUDY DURATION: 104 WK), 3, 30, 100 MG/KG IN CORN OIL 5 D/WK FOR 103 WK (STUDY DURATION: 104 WK), Tumor Site: Type of Lesion: LIVER: HEMANGIOSARCOMA, ALL ORGANS: HEMANGIOMA OR HEMANGIOSARCOMA", "value": "equivocal"}, {"measurement": "carcinogen call", "setting": "Species: RAT, Strain/Sex: STRAIN CD/MALE, FEMALE, Route: GAVAGE, 0.25, 1.5, 9 MG/KG IN CORN OIL 1/D 7 D/WK FOR 24 MO (STUDY DURATION: 24 MO), 0.25, 1.5, 9 MG/KG IN CORN OIL 1/D 7 D/WK FOR 24 MO (STUDY DURATION: 24 MO)", "value": "inactive; negative"}]}, {"molecule": "c1ccc2c(c1)ccc1cc3ccc4c(c3cc12)CCCC4", "values": [{"measurement": "carcinogen call", "setting": "Species: MOUSE, Strain/Sex: SWISS/FEMALE, Route: DERMAL, 37 UG IN ACETONE (0.2%) 2/WK FOR 70 WK FOR A TOTAL DOSE OF 0, 5.2 MG (STUDY DURATION: 100 WK), 37 UG IN ACETONE (0.2%) 2/WK FOR 70 WK FOR A TOTAL DOSE OF 0, 5.2 MG (STUDY DURATION: 100 WK), Tumor Site: Type of Lesion: SKIN: CARCINOMA, SKIN: PAPILLOMA", "value": "active; positive"}]}, {"molecule": "Cc1c(N)nc([C@H](CC(N)=O)NC[C@H](N)C(N)=O)nc1C(=O)N[C@H](C(=O)N[C@H](C)[C@@H](O)[C@H](C)C(=O)N[C@H](C(=O)NCCc1nc(-c2nc(C(=O)NCCCN[C@@H](C)c3ccccc3)cs2)cs1)[C@@H](C)O)[C@@H](O[C@@H]1O[C@@H](CO)[C@@H](O)[C@H](O)[C@@H]1O[C@H]1O[C@H](CO)[C@@H](O)[C@H](OC(N)=O)[C@@H]1O)c1cnc[nH]1", "values": [{"measurement": "carcinogen call", "setting": "Species: RAT, Strain/Sex: SPRAGUE-DAWLEY/FEMALE, Route: SUBCUTANEOUS, 0.32, 0.63, 1.25, 2.50, 5.0 MG/KG IN SALINE 1/WK FOR 10 WK THEN 1/2 WK FOR 12 WK, 19 WK OR LIFETIME (STUDY DURATION:, 0.32, 0.63, 1.25, 2.50, 5.0 MG/KG IN SALINE 1/WK FOR 10 WK THEN 1/2 WK FOR 12 WK, 19 WK OR LIFETIME (STUDY DURATION:, Tumor Site: Type of Lesion: KIDNEY: MALIGNANT OR BENIGN TUMOR, INJECTION SITE: MALIGNANT TUMOR", "value": "active; positive"}, {"measurement": "carcinogen call", "setting": "Species: RAT, Strain/Sex: SPRAGUE-DAWLEY/MALE, Route: SUBCUTANEOUS, 0.32, 0.63, 1.25, 2.50, 5.0 MG/KG IN SALINE 1/WK FOR 10 WK THEN 1/2 WK FOR 12 WK, 19 WK OR LIFETIME (STUDY DURATION:, 0.32, 0.63, 1.25, 2.50, 5.0 MG/KG IN SALINE 1/WK FOR 10 WK THEN 1/2 WK FOR 12 WK, 19 WK OR LIFETIME (STUDY DURATION:, Tumor Site: Type of Lesion: KIDNEY: MALIGNANT OR BENIGN TUMOR, INJECTION SITE: MALIGNANT TUMOR", "value": "active; positive"}]}, {"molecule": "CCCC(CCC)C(=O)O", "values": [{"measurement": "carcinogen call", "setting": "Species: RAT, Strain/Sex: WISTAR/FEMALE, Route: ORAL, 125, 250, 500 MG/KG BW IN DIET FOR 104 WK (STUDY DURATION: 104 WK), 125, 250, 500 MG/KG BW IN DIET FOR 104 WK (STUDY DURATION: 104 WK), Tumor Site: Type of Lesion: UTERUS: ADENOCARCINOMA", "value": "active; positive"}, {"measurement": "carcinogen call", "setting": "Species: RAT, Strain/Sex: WISTAR/MALE, Route: ORAL, 125, 250, 500 MG/KG BW IN DIET FOR 104 WK (STUDY DURATION: 104 WK), 125, 250, 500 MG/KG BW IN DIET FOR 104 WK (STUDY DURATION: 104 WK)", "value": "inactive; negative"}]}, {"molecule": "CCOP(=S)(OCC)SCCSCC", "values": [{"measurement": "carcinogen call", "setting": "Species: Mouse, Strain/Sex: CD/Female (60/Group with 10 used as replacements), Route: Oral, 1, 4, 16 ppm 98.2% disulfoton in diet for 99 wks, study duration 99 wks, 1, 4, 16 ppm 98.2% disulfoton in diet for 99 wks, study duration 99 wks", "value": "inactive; negative"}, {"measurement": "carcinogen call", "setting": "Species: Mouse, Strain/Sex: CD/Male (60/Group with 10 used as replacements), Route: Oral, 1, 4, 16 ppm 98.2% disulfoton in diet for 99 wks, study duration 99 wks, 1, 4, 16 ppm 98.2% disulfoton in diet for 99 wks, study duration 99 wks", "value": "inactive; negative"}, {"measurement": "carcinogen call", "setting": "Species: Rat, Strain/Sex: F344/Female (50/Group), Route: Oral, 1, 4, 16 ppm 97.6% disulfoton in diet for 105 wks, study duration 105 wks, 1, 4, 16 ppm 97.6% disulfoton in diet for 105 wks, study duration 105 wks", "value": "inactive; negative"}, {"measurement": "carcinogen call", "setting": "Species: Rat, Strain/Sex: F344/Male (50/Group), Route: Oral, 1, 4, 16 ppm 97.6% disulfoton in diet for 105 wks, study duration 105 wks, 1, 4, 16 ppm 97.6% disulfoton in diet for 105 wks, study duration 105 wks", "value": "inactive; negative"}]}, {"molecule": "C=CF", "values": [{"measurement": "carcinogen call", "setting": "Species: MOUSE, Strain/Sex: SWISS/FEMALE, Route: INHALATION, 25, 250, 2500 PPM 6 HR/D 5 D/WK FOR 18 MO (STUDY DURATION: 18 MO), 25, 250, 2500 PPM 6 HR/D 5 D/WK FOR 18 MO (STUDY DURATION: 18 MO), Tumor Site: Type of Lesion: LUNG: ADENOMA, LIVER: HEMANGIOSARCOMA, MAMMARY GLAND: TUMOR, Tumor Site: Type of Lesion: LUNG: ADENOMA, LIVER: HEMANGIOSARCOMA, MAMMARY GLAND: TUMOR", "value": "active; positive"}, {"measurement": "carcinogen call", "setting": "Species: MOUSE, Strain/Sex: SWISS/MALE, Route: INHALATION, 25, 250, 2500 PPM 6 HR/D 5 D/WK FOR 18 MO (STUDY DURATION: 18 MO), 25, 250, 2500 PPM 6 HR/D 5 D/WK FOR 18 MO (STUDY DURATION: 18 MO), Tumor Site: Type of Lesion: LUNG: ADENOMA, LIVER: HEMANGIOSARCOMA", "value": "active; positive"}, {"measurement": "carcinogen call", "setting": "Species: RAT, Strain/Sex: SPRAGUE-DAWLEY/FEMALE, Route: INHALATION, 25, 250, 2500 PPM 6 HR/D 5 D/WK FOR 2 YR (STUDY DURATION: 2 YR), 25, 250, 2500 PPM 6 HR/D 5 D/WK FOR 2 YR (STUDY DURATION: 2 YR), Tumor Site: Type of Lesion: LIVER: HEMANGIOSARCOMA, ADENOMA OR CARCINOMA, ZYMBAL'S GLAND: TUMOR", "value": "active; positive"}, {"measurement": "carcinogen call", "setting": "Species: RAT, Strain/Sex: SPRAGUE-DAWLEY/MALE, Route: INHALATION, 25, 250, 2500 PPM 6 HR/D 5 D/WK FOR 2 YR (STUDY DURATION: 2 YR), 25, 250, 2500 PPM 6 HR/D 5 D/WK FOR 2 YR (STUDY DURATION: 2 YR), Tumor Site: Type of Lesion: LIVER: HEMANGIOSARCOMA, ZYMBAL'S GLAND: TUMOR", "value": "active; positive"}]}, {"molecule": "CN(CCC=O)N=O", "values": [{"measurement": "carcinogen call", "setting": "Species: RAT, Strain/Sex: F344/MALE, Route: SUBCUTANEOUS, 6.57 MG (0.057 MMOL) IN 0.3 ML TRIOCTANOIN 3 D/WK FOR 15 WK (STUDY DURATION: 100 WK), Tumor Site: Type of Lesion: NASAL CAVITY: PAPILLOMA, LIVER: ADENOMA, LUNG: ADENOMA, Tumor Site: Type of Lesion: NASAL CAVITY: PAPILLOMA, LIVER: ADENOMA, LUNG: ADENOMA", "value": "active; positive"}]}]}
